Data: publication PMC4335062, “Data-Driven Prediction and Design of bZIP Coiled-Coil Interactions” (PLoS Computational Biology, 2015)
Where two headings read alike, the source gives them in different places. Where no end group is shown, it is not given here.

How the values were obtained:
Assay in all cases: Direct-binding FRET assay
CREBZF = biological target: T1, CREBZF (Homo sapiens, UniProt Q9NS37); conditions: read-out: Kd
T1 construct: made in house
T1 sequence (Q9NS37 204-267 limits assumed): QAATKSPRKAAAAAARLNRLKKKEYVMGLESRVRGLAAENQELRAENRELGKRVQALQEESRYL
Procedure: (§1) The direct binding assay was performed manually in 384-well plates and is similar to a previously described assay. Wells were filled with 20 μL of 1 mM TCEP-HCl. A 4 μM stock of acceptor protein was made fresh in 1 mM TCEP-HCl, and 20 μL was titrated in 2-fold dilutions over the wells. […] The direct-binding FRET data were fit as previously described. Briefly, the Kd of the designed peptide homodimer was experimentally determined and used with previously determined target homodimer Kd values to determine the heterodimer Kd. The homodimer Kd values used for the human bZIPs were from; experiments done by […] et al. used the same protein constructs for the human bZIP proteins, the same buffer conditions, and the same assay. The fitting used a system of ordinary differential equations to describe the concentrations of homo and heterodimers formed by the donor (D) and acceptor (A) as a function of the heterodimer Kd. MATLAB was used to simulate the binding experiment for different Kd values, and the value that gave the best agreement between simulation and experiment was assigned. A minimum 15% change in the donor fluorescence upon titrating the acceptor peptide from 0 to 1000 nM was required for a fit to be attempted. If this minimum was not met, the interaction was classified as “NS” for no signal change. […] These interactions were marked “AS” to indicate anomalous signal. We attributed this to interactions between the peptides, the dyes and the walls of the assay plates at low concentrations. These curves could not be fit, given their unusual shapes at low concentrations of acceptor. For such curves, we removed the first five points and re-fit the data. […] One example of this is increasing concentrations of acceptor causing an increase in donor fluorescence.

CREB3L3 = biological target: T2, CREB3L3 (Homo sapiens, UniProt Q68CJ9); conditions: mean or single, read-out: Kd
T2 construct: made in house
T2 sequence (Q68CJ9 243-306 limits assumed): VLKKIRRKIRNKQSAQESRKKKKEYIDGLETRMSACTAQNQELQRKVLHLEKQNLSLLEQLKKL
Procedure: as §1

HLF = biological target: T3, HLF (Homo sapiens, UniProt Q16534); conditions: read-out: Kd
T3 construct: made in house
T3 sequence (Q16534 225-288 limits assumed): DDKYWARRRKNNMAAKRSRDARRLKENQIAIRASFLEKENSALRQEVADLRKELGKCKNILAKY
Procedure: as §1

BATF3 = biological target: T4, BATF3 (Homo sapiens, UniProt Q9NR55); conditions: mean or single, read-out: Kd
T4 construct: made in house
T4 sequence (Q9NR55 35-98 limits assumed): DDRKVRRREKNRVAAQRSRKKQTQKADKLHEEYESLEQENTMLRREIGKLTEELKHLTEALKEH
Procedure: as §1

JUNB = biological target: T5, JUNB (Homo sapiens, UniProt P17275); conditions: mean or single, read-out: Kd
T5 construct: made in house
T5 sequence (P17275 268-331 limits assumed): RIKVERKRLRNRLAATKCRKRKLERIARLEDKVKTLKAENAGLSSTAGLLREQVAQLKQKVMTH
Procedure: as §1

NFIL3 = biological target: T6, NFIL3 (Homo sapiens, UniProt Q16649); conditions: read-out: Kd
T6 construct: made in house
T6 sequence (Q16649 73-136 limits assumed): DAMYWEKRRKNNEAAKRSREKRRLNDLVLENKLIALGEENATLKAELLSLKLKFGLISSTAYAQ
Procedure: as §1

CREB3L1 = biological target: T7, CREB3L1 (Homo sapiens, UniProt Q96BA8); conditions: read-out: Kd
T7 construct: made in house
T7 sequence (Q96BA8 290-353 limits assumed): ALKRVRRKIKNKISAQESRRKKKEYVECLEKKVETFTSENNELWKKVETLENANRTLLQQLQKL
Procedure: as §1

DBP = biological target: T8, DBP (Homo sapiens, UniProt Q10586); conditions: read-out: Kd
T8 construct: made in house
T8 sequence (Q10586 255-318 limits assumed): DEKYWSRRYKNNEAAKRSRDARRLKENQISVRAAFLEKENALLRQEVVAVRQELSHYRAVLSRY
Procedure: as §1

ATF5 = biological target: T9, ATF5 (Homo sapiens, UniProt Q9Y2D1); conditions: read-out: Kd
T9 construct: made in house
T9 sequence (Q9Y2D1 208-271 limits assumed): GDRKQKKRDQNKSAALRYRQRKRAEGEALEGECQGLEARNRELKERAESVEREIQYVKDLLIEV
Procedure: as §1

FOSL1 = biological target: T10, FOSL1 (Homo sapiens, UniProt P15407); conditions: mean or single, read-out: Kd
T10 construct: made in house
T10 sequence (P15407 105-168 limits assumed): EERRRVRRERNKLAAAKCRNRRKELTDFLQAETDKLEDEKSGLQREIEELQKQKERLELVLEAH
Procedure: as §1

[1] = 4°C, C-terminal fluorescein design as donor, TAMRA target titrated
[2] = 4°C, N-terminal rhodamine design, mean or single
[3] = 23°C, C-terminal fluorescein design as donor, TAMRA target titrated
[4] = 23°C, N-terminal rhodamine design, mean or single
[5] = 37°C, C-terminal fluorescein design as donor, TAMRA target titrated
[6] = 37°C, C-terminal rhodamine design, mean or single
[7] = 37°C, N-terminal rhodamine design, mean or single
[8] = 4°C, C-terminal rhodamine design
[9] = 4°C, N-terminal rhodamine design
[10] = 23°C, C-terminal rhodamine design
[11] = 23°C, N-terminal rhodamine design
[12] = 37°C, C-terminal rhodamine design
[13] = 37°C, N-terminal rhodamine design
[14] = 4°C, C-terminal rhodamine design, mean or single
[15] = 23°C, C-terminal rhodamine design, mean or single

EREAQLENRVAHLKEKNQELKAQNLHLKEALSEAQNRNQELKNDA [XBP1-d1]
Kd (CREBZF; [1]): > 1000 nM | Kd (CREBZF; [2]): > 1000 nM | Kd (CREBZF; [3]): > 1000 nM | Kd (CREBZF; [4]): > 1000 nM | Kd (CREBZF; [5]): > 1000 nM | Kd (CREBZF; [6]): > 1000 nM | Kd (CREBZF; 37°C, C-terminal rhodamine design, repeat 1): > 1000 nM | Kd (CREBZF; 37°C, C-terminal rhodamine design, repeat 2): > 1000 nM | Kd (CREBZF; 37°C, C-terminal rhodamine design, repeat 3): > 1000 nM | Kd (CREBZF; [7]): > 1000 nM | Kd (CREB3L3; [8]): > 1000 nM | Kd (CREB3L3; [9]): > 1000 nM | Kd (CREB3L3; [10]): > 1000 nM | Kd (CREB3L3; [11]): > 1000 nM | Kd (CREB3L3; [12]): > 1000 nM | Kd (CREB3L3; [13]): > 1000 nM | Kd (HLF; [1]): > 1000 nM | Kd (HLF; [14]): > 1000 nM | Kd (HLF; [2]): > 1000 nM | Kd (HLF; [3]): > 1000 nM | Kd (HLF; [15]): > 1000 nM | Kd (HLF; [4]): > 1000 nM | Kd (HLF; [5]): > 1000 nM | Kd (HLF; [6]): > 1000 nM | Kd (HLF; [7]): > 1000 nM | Kd (BATF3; [8]): > 5000 nM | Kd (BATF3; [9]): > 1000 nM | Kd (BATF3; [10]): > 1000 nM | Kd (BATF3; [11]): > 1000 nM | Kd (BATF3; [12]): > 1000 nM | Kd (BATF3; [13]): > 1000 nM | Kd (JUNB; [8]): > 1000 nM | Kd (JUNB; [9]): > 1000 nM | Kd (JUNB; [10]): > 1000 nM | Kd (JUNB; [11]): > 1000 nM | Kd (JUNB; [12]): > 1000 nM | Kd (JUNB; [13]): > 1000 nM | Kd (NFIL3; [1]): > 1000 nM | Kd (NFIL3; [14]): > 1000 nM | Kd (NFIL3; [2]): > 1000 nM | Kd (NFIL3; [3]): > 1000 nM | Kd (NFIL3; [15]): > 1000 nM | Kd (NFIL3; [4]): > 1000 nM | Kd (NFIL3; [5]): > 1000 nM | Kd (NFIL3; [6]): > 1000 nM | Kd (NFIL3; [7]): > 1000 nM | Kd (CREB3L1; [1]): > 1000 nM | Kd (CREB3L1; [14]): > 1000 nM | Kd (CREB3L1; [2]): > 1000 nM | Kd (CREB3L1; [3]): > 1000 nM | Kd (CREB3L1; [15]): > 1000 nM | Kd (CREB3L1; [4]): > 1000 nM | Kd (CREB3L1; [5]): > 1000 nM | Kd (CREB3L1; [6]): > 1000 nM | Kd (CREB3L1; [7]): > 1000 nM | Kd (DBP; [1]): > 1000 nM | Kd (DBP; [14]): > 1000 nM | Kd (DBP; [2]): > 1000 nM | Kd (DBP; [3]): > 1000 nM | Kd (DBP; [15]): > 1000 nM | Kd (DBP; [4]): > 1000 nM | Kd (DBP; [5]): > 1000 nM | Kd (DBP; [6]): > 1000 nM | Kd (DBP; [7]): > 1000 nM | Kd (ATF5; [14]): > 1000 nM | Kd (ATF5; [2]): > 1000 nM | Kd (ATF5; [15]): > 1000 nM | Kd (ATF5; [4]): > 1000 nM | Kd (ATF5; [6]): > 1000 nM | Kd (ATF5; [7]): > 1000 nM | Kd (FOSL1; [8]): > 1000 nM | Kd (FOSL1; [9]): > 1000 nM | Kd (FOSL1; [10]): > 1000 nM | Kd (FOSL1; [11]): > 1000 nM | Kd (FOSL1; [12]): > 1000 nM | Kd (FOSL1; [13]): > 1000 nM

KRIAYLRQRIAELRNENHVLESRIQRMEKEKDALQQDRDHLEYEL [ATF5-d1]
Kd (CREBZF; [14]): 409 nM | Kd (CREBZF; [2]): 375 nM | Kd (CREBZF; [15]): > 5000 nM | Kd (CREBZF; [4]): > 5000 nM | Kd (CREBZF; [6]): > 1000 nM | Kd (CREB3L3; [8]): 230 nM | Kd (CREB3L3; [9]): > 5000 nM | Kd (CREB3L3; [10]): 414 nM | Kd (CREB3L3; [11]): > 5000 nM | Kd (CREB3L3; [12]): 657 nM | Kd (CREB3L3; [13]): > 1000 nM | Kd (HLF; [14]): > 5000 nM | Kd (HLF; [2]): > 5000 nM | Kd (HLF; [15]): > 5000 nM | Kd (HLF; [4]): > 1000 nM | Kd (HLF; [6]): > 5000 nM | Kd (HLF; [7]): > 1000 nM | Kd (BATF3; [8]): 192 nM | Kd (BATF3; [9]): 52.8 nM | Kd (BATF3; [10]): 791 nM | Kd (BATF3; [11]): 315 nM | Kd (BATF3; [12]): > 5000 nM | Kd (BATF3; [13]): > 5000 nM | Kd (JUNB; [8]): 3620 nM | Kd (JUNB; [9]): > 1000 nM | Kd (JUNB; [10]): > 1000 nM | Kd (JUNB; [11]): > 1000 nM | Kd (JUNB; [12]): > 1000 nM | Kd (JUNB; [13]): > 1000 nM | Kd (NFIL3; [14]): > 1000 nM | Kd (NFIL3; [2]): > 1000 nM | Kd (NFIL3; [15]): > 1000 nM | Kd (NFIL3; [4]): > 1000 nM | Kd (NFIL3; [6]): > 1000 nM | Kd (NFIL3; [7]): > 1000 nM | Kd (CREB3L1; [14]): 158 nM | Kd (CREB3L1; [2]): > 5000 nM | Kd (CREB3L1; [15]): 529 nM | Kd (CREB3L1; [4]): > 5000 nM | Kd (CREB3L1; [7]): > 1000 nM | Kd (DBP; [14]): > 1000 nM | Kd (DBP; [2]): > 5000 nM | Kd (DBP; [15]): > 1000 nM | Kd (DBP; [4]): > 1000 nM | Kd (DBP; [6]): > 1000 nM | Kd (DBP; [7]): > 1000 nM | Kd (ATF5; [14]): 1.1 nM | Kd (ATF5; 4°C, N-terminal rhodamine design, repeat 3): 200 to 1000 nM | Kd (ATF5; [6]): 1680 nM | Kd (ATF5; 37°C, N-terminal rhodamine design, repeat 1): > 1000 nM | Kd (ATF5; 37°C, N-terminal rhodamine design, repeat 2): > 1000 nM | Kd (ATF5; 37°C, N-terminal rhodamine design, repeat 3): > 5000 nM | Kd (FOSL1; [8]): 84.1 nM | Kd (FOSL1; [9]): 271 nM | Kd (FOSL1; [10]): 695 nM | Kd (FOSL1; [11]): > 5000 nM | Kd (FOSL1; [12]): > 1000 nM
